Assay results as given in patent US7172889B2, “Biological compositions and methods for treatment of cervical cancer” (Ultra Biotech Limited, priority 2003, dated 2007).

Legend:
[1] = test system: cervical cancer cell line U14; assay: Tumor growth in mice of the 615 strain transplanted with cervical cancer cell line U14 (Example 6); type: in vivo, mice from the 615 strain; settings: U14 tumor-bearing 615 mice, 30 consecutive days of treatment, sacrificed on 31st day; AY/NY 0.3 ml oral once per day, MMC 0.8 mg/kg/day s.c.
Description: The following example illustrates the benefit of a biological composition of the invention in a model of human cervical cancer in mice from the 615 strain. The growth of the tumor in the mice was studied.
(§1) The cervical cancer cell line U14 was used in the model which closely resembles the human cervical cancer pathology. Detailed description of the use of cervical cancer cell line U14 can be found in Tao G. et al., 2001, Chin Med J. 114(6):623–7, which is incorporated herein by reference in its entirety.
(§2) The biological composition comprising 10^8 cells per ml of activated and conditioned yeast cells of the strain Saccharomyces carlsbergensis Hansen strain AS2.444 was prepared by the methods described in Section 5.1 and subsections therein.
The animals used to generate the cervical cancer cells for the experiments were female mice from the 615 strain (obtainable from the Chinese Academy of Military Medical Sciences, Beijing, China) having an average body weight of 20 to 22 gram and 4 to 6 months old. […]
The mice received the biological composition, untreated yeast cells, MMC or saline on the same day as the tumor cells were transplanted. […] The weight of the mice and the weight of the tumor were determined by standard techniques.

[2] = test system: cervical cancer cell line U14; assay: Survival of mice of the 615 strain transplanted with cervical cancer cell line U14 (Example 7); type: in vivo; settings: for Number of live animals remaining in the groups after 30 days of treatment: 30 mice per group, 2AY/2NY 0.5 ml oral per day, 2MMC 1.2 mg/kg/day s.c.
Protocol: The following example illustrates the benefit of a biological composition of the invention in a model of human cervical cancer in mice from the 615 strain. The survival time of mice after tumor injection and treatment was studied.
as §2
The animals were prepared in a similar manner as described in Section 6.1.
(§3) The mice injected with tumor cells were immediately divided into 4 experimental groups of ten mice per group and one control group. The four experimental groups were triplicated (i.e., using a total of 120 mice in the experimental groups). In group 2AY, the mice received 0.5 ml of the biological composition once per day. In group 2NY, the mice received 0.5 ml of the untreated yeast cells once per day. In group 2MMC, the mice were injected subcutaneously with 1.2 mg of mitomycin C (MMC) per kg body weight per day. In group 2CK1, the mice received 0.5 ml of physiological saline once per day.
(§4) The mice received the biological composition, untreated yeast cells, MMC or saline on the same day as the tumor cells were transplanted. The mice in group 2CK2 also started receiving saline on the same day as the other four groups. The biological composition, untreated yeast cells and saline were administered orally by a feeding tube and the MMC by subcutaneous injection for 30 consecutive days. The mice were observed over 6 months from the day of tumor inoculation and survival was recorded. The weight of the mice and the weight of the tumor were determined by standard techniques.

[3] = test system: cervical cancer cell line U27; assay: Survival of kun ming mice transplanted with cervical cancer cell line U27 (Example 9); type: in vivo; settings: for Number of live animals remaining in the groups after 30 days of treatment: 30 mice per group, 2AY/2NY 0.5 ml oral per day, 2VCR 4.5 mg/kg/day i.v.
Protocol: The following example illustrates the benefit of a biological composition of the invention in a kun ming mouse model of human cervical cancer. The survival time of mice after tumor injection and treatment was studied.
as §2
The animals were prepared in a similar manner as described in Section 8.1.
as §3, with “2VCR,” for “2MMC,”, “intravenously” for “subcutaneously”, “4.5” for “1.2”, “[…] (VCR)” for “mitomycin C (MMC)”
as §4, with “VCR” for “MMC”, “intravenous” for “subcutaneous”

[4] = test system: cervical cancer cell line U27; assay: Tumor growth in kun ming mice transplanted with cervical cancer cell line U27 (Example 8); type: in vivo, kun ming mouse; settings: U27 tumor-bearing kun ming mice, 30 consecutive days of treatment, sacrificed on 31st day; AY/NY 0.3 ml oral once per day, VCR 3 mg/kg/day i.v.
Description: The following example illustrates the benefit of a biological composition of the invention in a kun ming mouse model of human cervical cancer. The growth of the tumor in the mice was studied.
as §1, with “U27” for “U14”, “Qian S. S.” for “Tao G.”, “1987, Zhongguo Yi Xue Ke Xue Yuan Xue Bao 9(1):33–7,” for “2001, Chin Med J. 114(6):623–7,”
as §2
The animals used to generate the cervical cancer cells for the experiments were female kun ming mouse (obtainable from the Chinese Academy of Military Medical Sciences, Beijing, China) having an average body weight of 20 to 22 gram and 5 to 6 months old. […]
The mice received the biological composition, untreated yeast cells, VCR or saline on the same day as the tumor cells were transplanted. […] The weight of the mice and the weight of the tumor were determined by standard techniques.

[5] = 0 month after cessation of treatment
[6] = 1 month after cessation of treatment
[7] = 2 months after cessation of treatment
[8] = 3 months after cessation of treatment
[9] = 4 months after cessation of treatment
[10] = 5 months after cessation of treatment
[11] = 6 months after cessation of treatment
[12] = surviving mice after 6 months observation, U14, 615 mice, 0.5 ml oral per day (2MMC 1.2 mg/kg/day s.c.) for 30 days
[13] = surviving mice after 6 months observation, U27, kun ming mice, 0.5 ml oral per day (2VCR 4.5 mg/kg/day i.v.) for 30 days

## CO[C@@]12[C@H](COC(N)=O)C3=C(C(=O)C(C)=C(N)C3=O)N1C[C@@H]1N[C@@H]12 [MMC, mitomycin C]
[1]
  mean weight of mice and standard deviation: 19.3 ± 3.3 g
  mean weight of tumor nodules and standard deviation: 4.4 ± 2.23 mg
[2]; [5]
  Number of live animals remaining in the groups after 30 days of treatment: 30
[2]; [6]
  Number of live animals remaining in the groups after 30 days of treatment: 30
[2]; [7]
  Number of live animals remaining in the groups after 30 days of treatment: 24
[2]; [8]
  Number of live animals remaining in the groups after 30 days of treatment: 13
[2]; [9]
  Number of live animals remaining in the groups after 30 days of treatment: 0
[2]; [10]
  Number of live animals remaining in the groups after 30 days of treatment: 0
[2]; [11]
  Number of live animals remaining in the groups after 30 days of treatment: 0
[2]; observed over 6 months, 2NY 0.5 ml per day, 2MMC 1.2 mg/kg/day
  death during the experiment: all died during the experiment
[2]; [12]
  mean weight of mice and standard deviation: all animals dead
  mean weight of tumor nodules and standard deviation: all animals dead

## CC[C@]1(O)C[C@@H]2CN(CCc3c([nH]c4ccccc34)[C@@](C(=O)OC)(c3cc4c(cc3OC)N(C)[C@H]3[C@@](O)(C(=O)OC)[C@H](OC(C)=O)[C@]5(CC)C=CCN6CC[C@]43[C@@H]65)C2)C1 [VCR, vinblastine]
[3]; [5]
  Number of live animals remaining in the groups after 30 days of treatment: 30
[3]; [6]
  Number of live animals remaining in the groups after 30 days of treatment: 30
[3]; [7]
  Number of live animals remaining in the groups after 30 days of treatment: 22
[3]; [8]
  Number of live animals remaining in the groups after 30 days of treatment: 17
[3]; [9]
  Number of live animals remaining in the groups after 30 days of treatment: 4
[3]; [10]
  Number of live animals remaining in the groups after 30 days of treatment: 0
[3]; [11]
  Number of live animals remaining in the groups after 30 days of treatment: 0
[3]; observed over 6 months, 2NY 0.5 ml per day, 2VCR 4.5 mg/kg/day
  death during the experiment: all died during the experiment
[3]; [13]
  mean weight of mice and standard deviation: all animals dead
  mean weight of tumor nodules and standard deviation: all animals dead
[4]
  mean weight of mice and standard deviation: 18.5 ± 3.7 g
  mean weight of tumor nodules and standard deviation: 4.77 ± 2.79 g
